Reference: patent publication US11142515B2, “Pyrazolyl-ureas as kinase inhibitors” (RESPIVERT LIMITED, priority 2014, dated 2021)

Columns and labels:
[1] = target: T1, p38 MAPKα isoform (MAPK14) (Homo sapiens, UniProt Q16539); experiment: p38 MAPKα enzyme inhibition (Z-LYTE FRET); format: biochemical; conditions: Table 2A; read-out: IC50 Values for Enzyme Inhibition p38 MAPKα
T1 construct: purchased Life Technologies
How it was run: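 Recombinant human MAPK14 (40 ng/mL stock) was preincubated 2 h at RT with compound (stock dilutions 0.0012-40 μg/mL). The Z-LYTE FRET read-out used a MAPKAP-K2-derived peptide, and protease development for 1 h cleaved only non-phosphorylated peptide. Phosphorylation was calculated from the coumarin/fluorescein emission ratio.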

p38MAPKγ (MAPK12) = target: T2, p38MAPKγ (MAPK12) (Homo sapiens, UniProt P53778); experiment: p38 MAPKγ enzyme inhibition (Z-LYTE FRET); format: biochemical; conditions: Table 2A; read-out: IC50 Values for Enzyme Inhibition p38 MAPKγ
T2 construct: purchased Life Technologies
T2 sequence (P53778 1-367): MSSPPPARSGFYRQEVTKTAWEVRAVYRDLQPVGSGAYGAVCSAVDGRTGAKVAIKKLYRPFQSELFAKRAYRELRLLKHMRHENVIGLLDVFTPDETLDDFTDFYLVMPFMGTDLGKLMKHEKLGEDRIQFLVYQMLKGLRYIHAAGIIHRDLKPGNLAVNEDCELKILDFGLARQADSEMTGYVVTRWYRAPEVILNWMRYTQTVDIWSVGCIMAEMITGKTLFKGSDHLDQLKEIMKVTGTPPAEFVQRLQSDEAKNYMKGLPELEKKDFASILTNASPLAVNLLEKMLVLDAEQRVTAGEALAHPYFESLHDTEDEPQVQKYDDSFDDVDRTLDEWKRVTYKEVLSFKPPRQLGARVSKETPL
How it was run: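 Z-LYTE read-out: after 1 h protease development, only non-phosphorylated peptide is cleaved, and the donor/acceptor (coumarin/fluorescein) ratio reports phosphorylation. Beforehand, enzyme and compound (stock concentrations 0.0012–40 μg/mL) were preincubated 2 h at RT, then the kinase reaction ran 1 h at RT with peptide and ATP (8 μM and 400 μM stocks).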

Hck = target: T3, Hck (Homo sapiens, UniProt P08631); experiment: Hck enzyme inhibition (Z-LYTE FRET); format: biochemical; conditions: Table 2A
T3 construct: purchased Life Technologies
T3 sequence (P08631 22-526): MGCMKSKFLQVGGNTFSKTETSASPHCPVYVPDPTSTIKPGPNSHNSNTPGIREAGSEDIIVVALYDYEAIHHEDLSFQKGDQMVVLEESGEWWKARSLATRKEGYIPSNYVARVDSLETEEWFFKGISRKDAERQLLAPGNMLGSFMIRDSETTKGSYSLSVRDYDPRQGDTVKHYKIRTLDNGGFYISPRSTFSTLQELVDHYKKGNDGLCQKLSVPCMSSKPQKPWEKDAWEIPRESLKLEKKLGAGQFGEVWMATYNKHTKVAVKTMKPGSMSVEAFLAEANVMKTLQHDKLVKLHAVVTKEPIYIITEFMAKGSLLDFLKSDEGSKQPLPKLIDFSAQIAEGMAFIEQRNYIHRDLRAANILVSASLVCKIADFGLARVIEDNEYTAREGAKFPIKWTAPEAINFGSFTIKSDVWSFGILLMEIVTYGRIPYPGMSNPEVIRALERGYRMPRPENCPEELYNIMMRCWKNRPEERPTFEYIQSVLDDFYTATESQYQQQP
Protocol: The enzyme inhibitory activities of compounds disclosed herein were determined by FRET using synthetic peptides labelled with both donor and acceptor fluorophores (Z-LYTE, Life Technologies, Paisley, UK).
The relevant enzyme (1000 ng/mL, 1400 ng/mL or 2000 ng/mL respectively, 2.5 μL) was incubated with the test compound (either 40 μg/mL, 12 μg/mL, 4 μg/mL, 1.2 μg/mL, 0.4 μg/mL, 0.12 μg/mL, 0.04 μg/mL, 0.012 μg/mL, 0.004 μg/mL or 0.0012 μg/mL, 2.5 μL each) for 2 h at RT. The FRET peptides (8 μM, 2.5 μL), and appropriate ATP solutions (2.5 μL, 800 μM for c-Src, and 60 μM ATP for HCK and Syk) were then added to the enzyme/compound mixtures and incubated for 1 h at RT. Development reagent (protease, 5 μL) was added for 1 h prior to detection in a fluorescence microplate reader (EnVision, Perkin Elmer).
In all cases, the site-specific protease cleaves non-phosphorylated peptide only and eliminates the FRET signal. Phosphorylation levels of each reaction were calculated using the ratio of coumarin emission (donor) over fluorescein emission (acceptor), for which low ratios indicate high phosphorylation and high ratios indicate low phosphorylation levels.

GSK 3α enzyme isoform = target: T4, GSK 3α enzyme isoform (Homo sapiens, UniProt P49840); experiment: GSK 3α enzyme inhibition (Z-LYTE FRET); format: biochemical; conditions: Table 2A; read-out: IC50 Values for Enzyme Inhibition GSK3α
T4 construct: purchased Life Technologies
T4 sequence (P49840 whole entry, canonical isoform): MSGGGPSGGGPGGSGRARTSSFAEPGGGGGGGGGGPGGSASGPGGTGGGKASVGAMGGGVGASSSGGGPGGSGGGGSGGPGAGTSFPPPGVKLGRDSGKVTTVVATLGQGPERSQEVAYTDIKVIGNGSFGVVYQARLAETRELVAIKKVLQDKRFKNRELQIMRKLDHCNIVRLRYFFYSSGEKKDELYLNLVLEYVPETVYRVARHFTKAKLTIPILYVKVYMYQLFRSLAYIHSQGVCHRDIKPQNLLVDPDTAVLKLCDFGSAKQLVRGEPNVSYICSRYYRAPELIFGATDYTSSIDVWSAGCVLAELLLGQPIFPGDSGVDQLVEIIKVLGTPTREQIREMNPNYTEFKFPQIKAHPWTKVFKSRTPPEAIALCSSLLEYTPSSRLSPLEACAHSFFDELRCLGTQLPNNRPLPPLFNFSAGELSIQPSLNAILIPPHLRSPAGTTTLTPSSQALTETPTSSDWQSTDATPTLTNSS
How it was run: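 Z-LYTE FRET kinase assay: GSK3α protein (500 ng/mL stock) preincubated with compound (0.0012–40 μg/mL stocks) for 2 h at RT. FRET peptide (8 μM stock) and ATP (40 μM stock) added for 1 h at RT, then protease development for 1 h. Phosphorylation taken from the coumarin/fluorescein emission ratio.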

[2] = system: IL-8 release in d-U937 cells; experiment: LPS-induced IL-8 release in d-U937 cells; format: cell-based; conditions: Homo sapiens, dU937, LPS 0.1 μg/mL 4 h
Protocol: (§1) U937 cells, a human monocytic cell line, were differentiated into macrophage-type cells by incubation with PMA (100-200 ng/mL) for 48 to 72 h. Cells were pre-incubated with final […] concentrations of test compound for 2 h and were then stimulated with LPS (0.1 μg/mL; from E. coli: O111:B4, Sigma) for 4 h. The supernatant was collected for determination of TNFα and IL-8 concentrations by sandwich ELISA (Duo-set, R&D systems). […] The relative 50% effective concentration (REC50) was determined from the resultant concentration-response curve. The inhibition of IL-8 production was calculated at each concentration of test compound by comparison with vehicle control.

[3] = system: TNFα release in d-U937 cells; experiment: LPS-induced TNFα release in d-U937 cells; format: cell-based; conditions: Homo sapiens, dU937; read-out: LPS Induced Release TNFα REC50 (dU937); note: relative to 10 µg/mL BIRB-796
Protocol: as §1

T1 sequence (Q16539 whole entry, canonical isoform): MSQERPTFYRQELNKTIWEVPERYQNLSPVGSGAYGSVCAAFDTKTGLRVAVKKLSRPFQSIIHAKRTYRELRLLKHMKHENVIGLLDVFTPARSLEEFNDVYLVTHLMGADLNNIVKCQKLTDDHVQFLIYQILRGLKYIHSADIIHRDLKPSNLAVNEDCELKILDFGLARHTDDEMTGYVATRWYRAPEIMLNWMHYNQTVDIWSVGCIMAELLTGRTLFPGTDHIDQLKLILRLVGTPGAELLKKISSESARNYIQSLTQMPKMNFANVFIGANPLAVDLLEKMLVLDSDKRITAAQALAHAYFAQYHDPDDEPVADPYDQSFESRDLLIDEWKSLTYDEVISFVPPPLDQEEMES

| IC50 [1] [nM] | IC50 (p38MAPKγ (MAPK12)) [nM] | IC50 (Hck) [nM] | IC50 (GSK 3α enzyme isoform) [nM] | IC50 [2] [nM] | EC50 [3] [nM] | SMILES |
| --- | --- | --- | --- | --- | --- | --- |
| 5 | 106 | 11 | 5170 | 29.9 | 2.7 | CNC(=O)Cc1cncc(Nc2cc(COc3ccc(NC(=O)Nc4cc(C(C)(C)C)nn4-c4ccc(C)cc4)c4ccccc34)ccn2)n1 [Example 28] |
| 11 | 129 | 115 | 4480 | 24.3 | 2.3 | CC(C)(C)c1cc(NC(=O)Nc2ccc(OCc3ccnc(Nc4cnccn4)c3)c3ccccc23)n(-c2cccc(F)c2)n1 [Example 49] |
| 13 | 104 | 41 | 9170 | 2.1 | 2.6 | COc1cncc(Nc2cc(COc3ccc(NC(=O)Nc4cc(C(C)(C)C)nn4-c4ccc(C)cc4)c4ccccc34)ccn2)n1 [Example 18] |
| 3 | 37 | 7 | 1320 | 15 | 13 | Cc1ccc(-n2nc(C(C)(C)C)cc2NC(=O)Nc2ccc(OCc3ccnc(Nc4cncc(CC(N)=O)n4)c3)c3ccccc23)cc1 [Example 32] |
| 13 | 229 | 53 | > 16300 | 1.4 | 13.2 | Cc1ccc(-n2nc(C(C)(C)C)cc2NC(=O)Nc2ccc(OCc3ccnc(Nc4cnc(C)cn4)c3)c3ccccc23)cc1 [Example 19] |
| 8 | 31 | 16 | > 15900 | 15.3 | 2.8 | Cc1ccc(-n2nc(C(C)(C)C)cc2NC(=O)Nc2ccc(OCc3ccnc(Nc4cnc(CO)cn4)c3)c3ccccc23)cc1 [Example 10, 1-(3-(tert-Butyl)-1-(p-tolyl)-1H-pyrazol-5-yl)-3-(4-((2-((5-(hydroxymethyl)pyrazin-2-yl)amino)pyridin-4-yl)methoxy)naphthalen-1-yl)urea] |
| 7 | 49 | 5 | 523 | 5.8 | 1.4 | CC(C)(C)c1cc(NC(=O)Nc2ccc(OCc3ccnc(Nc4cncc(C5CC5)n4)c3)c3ccccc23)n(-c2ccc(CO)cc2)n1 [Example 25] |
| 3 | 53 | 11 | 5960 | 42.4 | 2.6 | CNC(=O)Cc1cnc(Nc2cc(COc3ccc(NC(=O)Nc4cc(C(C)(C)C)nn4-c4ccc(C)cc4)c4ccccc34)ccn2)cn1 [Example 33] |
| 96 | 160 | 15 | 3650 | 1.9 | 2.1 | Cc1ccc(-n2nc(C(C)(C)C)cc2NC(=O)Nc2ccc(OCc3ccnc(Nc4cncc(C5CC5)n4)c3)c3ccccc23)cc1 [Example 15] |
| 14 | 171 | 36 | > 16300 | 25.7 | 2.2 | Cc1ccc(-n2nc(C(C)(C)C)cc2NC(=O)Nc2ccc(OCc3ccnc(Nc4cnccn4)c3)c3ccccc23)cc1C [Example 51] |
